Data published in publication PMC11013252, “Exploration of the Antibacterial and Anti-Inflammatory Activity of a Novel Antimicrobial Peptide Brevinin-1BW” (Molecules, 2024).
Values after ≈ are worked out from the molar mass of the structure shown. Read-outs that look alike come from different tables or passages of the source. Positions of bridges follow the written chain, without caps; N, C: chain ends. Residues, ends and D or L forms follow the SMILES beside them.

Columns and labels:
S. aureus (ATCC25923) = assay: microbe, parasite or virus in culture; type: cell-based, Staphylococcus aureus
Method: (§1) The minimum inhibitory concentration (MIC) of the Brevinin-1BW was measured in 96-well microtiter plates according to the Clinical and Laboratory Standards Institute (CLSI). The activated strains were treated with Mueller Hinton Agar (MHA) solid medium. Single colonies were picked and expanded to the logarithmic growth phase, and the solution was diluted to 2 × 10^6 CFU/mL using the McFarland turbidity standard. The MIC was determined with the two-fold dilution method. Briefly, 50 μL of Mueller Hinton (MH) medium was added to a 96-well plate in advance. Then, 50 μL of AMP solution was added to the first well, and 50 μL was pipetted into the next well after mixing using a row gun, while 50 μL was discarded from the last well. Final concentrations of Brevinin-1BW were 100, 50, 25, 12.5, 6.25, and 3.125 μg/mL. A 50 μL volume of the diluted bacterial solution was added, and the final concentration of the bacterial solution was 1 × 10^6 CFU/mL. This was then placed into a 37 °C incubator for 18 h until the next day to observe the degree of turbidity of the 96-well plate and measure the absorbance of the wells at 600 nm with a multifunctional microplate reader (SpectraMax iD5, Molecular Devices, Sunnyvale, CA, USA). The absence of turbidity and the measured concentration of absorbance being less than the opposing group was taken as the MIC. The positive control used ampicillin at the same final concentration as Brevinin-1BW, the negative control used 50 μL of MH medium mixed with 50 μL of 2 × 10^6 CFU/mL bacterial solution, and the blank contained only 100 μL of MH medium. Three replicate wells were set up for each experiment, and each experiment was repeated three times. The MIC and all concentrations above the MIC of bacterial solution coated on MHA solid medium were placed into 37 °C incubator incubation for 18 h. The lowest concentration resulting in no colony growth was taken as the minimum bactericidal concentration (MBC).

[1] = system: S. aureus (MDR ATCC29213); assay: microbe, parasite or virus in culture; type: cell-based, Staphylococcus aureus; details: ATCC29213, 18 h
Method: as §1

E. faecalis (ATCC29212) = assay: microbe, parasite or virus in culture; type: cell-based, Enterococcus faecalis; details: ATCC29212, 18 h
Method: as §1

[2] = system: S. epidermidis (CI 1607BL1D39); assay: microbe, parasite or virus in culture; type: cell-based, Staphylococcus epidermidis; details: CI 1607BL1D39, 18 h
Method: as §1

[3] = system: S. haemolyticus (CI 1607BLD590); assay: microbe, parasite or virus in culture; type: cell-based, Staphylococcus haemolyticus; details: CI 1607BLD590, 18 h
Method: as §1

[4] = system: P. aeruginosa (ATCC27853); assay: microbe, parasite or virus in culture; type: cell-based, Pseudomonas aeruginosa; details: ATCC27853, 18 h
Method: as §1

[5] = system: C. koseri (CI 1611SED223); assay: microbe, parasite or virus in culture; type: cell-based, Citrobacter koseri; details: 18 h
Method: as §1

[6] = system: S. aureus (ATCC 25923) biofilm formation; type: cell-based, Staphylococcus aureus; details: ATCC 25923, 24 h
Method: The plates were washed three times with sterile PBS and fixed with methanol for 0.5 h. After drying, the cells were stained with 1% crystal violet solution for 0.5 h. They were washed three times with deionized water and dissolved in 100 µL absolute ethanol. Absorbance was measured at 600 nm. Experiments were repeated four times independently.

S. aureus mature biofilm = assay: Biofilm clearance, crystal violet; type: cell-based, Staphylococcus aureus; details: S. aureus 24 h biofilm
Method: Biofilm clearance of Brevinin-1BW was determined using a 96-well plate assay by first inoculating 100 µL of S. aureus bacterial suspension (5 × 10^5 CFU/mL) and incubating for 24 h at 37 °C. They were washed three times with sterile PBS. […] After 24 h of incubation, the cells were washed three times with sterile PBS. Methanol was added and fixed for 0.5 h and dried aseptically. A 1% crystal violet solution was added for 0.5 h and washed three times with sterilized deionized water. Absolute ethanol dissolved the biofilm. Absorbance was measured at 600 nm. Experiments were repeated four times independently.

293T = type: cell-based, human; details: 24 h
Method: (§2) Medium was prepared to contain 10% FBS (TransGen Biotech, China) and 1% penicillin-streptomycin (Biosharp, Guangzhou, China). A549, U-2OS, HePG2, HaCaT, HUVEC, and 293T cells were cultured in DMEM medium (Gibco, New York, NY, USA). A375, HCT116, Hela, and RAW264.7 cells were cultured in RPMI 1640 medium (Gibco, New York, NY, USA). The cytotoxicity of Brevinin-1BW was determined using the Cell Counting Kit-8 as follows: detached the cells from cell culture flasks with 0.25% trypsin, counted with a hemocytometer plate and then prepared into a cell suspension containing 5 × 10^3 cells/mL. Then, 90 μL of the cell suspension was inoculated into a 96-well plate and incubated at 37 °C in a 5% CO2-humidified atmosphere for 24 h. A 10 μL volume of the peptide was subsequently added to each well and co-incubated with the cells for 24 h. Then, 10 μL of CCK8 (Abbkine, Wuhan, China) was added to each well and incubated for a further 2 h. The absorbance of each well at 450 nm was measured using a multifunctional enzyme marker. […] Three replicate wells were set up for each experiment, and each experiment was repeated three times. The formula for calculating the cell viability is shown below.

A375 = type: cell-based, human; details: 24 h
Method: as §2

A549 = type: cell-based, human; details: 24 h
Method: as §2

HCT116 = type: cell-based, human; details: 24 h
Method: as §2

HUVEC = type: cell-based, human; details: 24 h
Method: as §2

HaCaT = type: cell-based, human; details: 24 h
Method: as §2

HePG2 = type: cell-based, human; details: 24 h
Method: as §2

Hela = type: cell-based, human; details: 24 h
Method: as §2

U-2OS = type: cell-based, human; details: 24 h
Method: as §2

HFF = type: cell-based, human; details: 24 h

## CC[C@H](C)[C@@H]1NC(=O)[C@H](CCCCN)NC(=O)[C@@H](NC(=O)[C@H](Cc2ccccc2)NC(=O)[C@@H](NC(=O)[C@@H](NC(=O)[C@@H]2CCCN2C(=O)[C@H](CC(C)C)NC(=O)[C@H](Cc2ccccc2)NC(=O)[C@H](CO)NC(=O)[C@H](C)NC(=O)[C@H](C)NC(=O)[C@H](CC(C)C)NC(=O)CNC(=O)[C@H](C)NC(=O)[C@H](CC(C)C)NC(=O)[C@H](CC(C)C)NC(=O)[C@@H]2CCCN2C(=O)[C@H](CC(C)C)NC(=O)[C@@H](N)Cc2ccccc2)[C@@H](C)O)[C@@H](C)CC)CSSC[C@@H](C(=O)O)NC(=O)[C@H](CCCCN)NC(=O)[C@H](CCCNC(=N)N)NC(=O)[C@H](CO)NC1=O [Brevinin-1BW] (H-FLPLLAGLAASFLPTIFCKISRKC-OH; disulfide 18-24)
S. aureus (ATCC25923); ATCC25923, 18 h
  MBC: 6.25 µg/mL (≈ 2.4 µM)
  MIC: 6.25 µg/mL (≈ 2.4 µM)
S. aureus (ATCC25923); S. aureus, at 6.25 μg/mL
  reduction of viability: 99.9%
[1]
  MBC: 25 µg/mL (≈ 9.58 µM)
  MIC: 6.25 µg/mL (≈ 2.4 µM)
E. faecalis (ATCC29212)
  MBC: 12.5 µg/mL (≈ 4.79 µM)
  MIC: 3.125 µg/mL (≈ 1.2 µM)
[2]
  MBC: 25 µg/mL (≈ 9.58 µM)
  MIC: 12.5 µg/mL (≈ 4.79 µM)
[3]
  MBC: 25 µg/mL (≈ 9.58 µM)
  MIC: 12.5 µg/mL (≈ 4.79 µM)
[4]
  MBC: >100 µg/mL
  MIC: 100 µg/mL (≈ 38.3 µM)
[5]
  MBC: >100 µg/mL
  MIC: 50 µg/mL (≈ 19.2 µM)
[6]; 0.5
  inhibition of biofilm formation: 35.76%
[6]; 2
  inhibition of biofilm formation: 83.67%
S. aureus mature biofilm; 0.5 × MIC
  clearance rate of the mature biofilm: 50.02%
S. aureus mature biofilm; 2 × MIC
  clearance rate of the mature biofilm: 60.99%
293T
  CC50: 28.34 ± 1.08 µg/mL (≈ 10.9 µM)
A375
  CC50: 23.79 ± 0.80 µg/mL (≈ 9.12 µM)
A549
  CC50: 27.64 ± 0.41 µg/mL (≈ 10.6 µM)
HCT116
  CC50: 35.44 ± 0.47 µg/mL (≈ 13.6 µM)
HUVEC
  CC50: 43.62 ± 0.77 µg/mL (≈ 16.7 µM)
HaCaT
  CC50: 36.84 ± 1.44 µg/mL (≈ 14.1 µM)
HePG2
  CC50: 25.42 ± 0.49 µg/mL (≈ 9.75 µM)
Hela
  CC50: 37.62 ± 0.91 µg/mL (≈ 14.4 µM)
U-2OS
  CC50: 39.20 ± 0.40 µg/mL (≈ 15 µM)
HFF
  CC50: 33.99 ± 0.48 µg/mL (≈ 13 µM)
